Reference: US6365573B1, “Regulation of neural enzymes” (Neuronz Ltd., priority 1996, dated 2002)

What was measured:
Format in all cases: in vivo, rat
[1] = tested on: Choline acetyltransferase (ChAT); assay: ChAT immunopositive striatal neuron count after hypoxic-ischemic injury; settings: adult Wistar rats, 3 ug GPE centrally via guide cannula 2 hours after hypoxia, striatum counted 3 days after injury, vs vehicle; FIG. 1
Experimental: (§1) The objective of these studies was to determine the effects of administering GPE on expression of ChAT in the presence or absence of CNS injury. The experiment involved treating the rats with a control vehicle or GPE 2 hours after a focal CNS injury. […] The degree and length of hypoxia, the ambient temperature and humidity were defined to standardise the degree of damage. The neuronal death is restricted to the side of the carotid ligation and is primarily in the hippocarnpus, dentate gyrus, striatum and lateral cortex of the ligated hemisphere. There is no neuronal loss in the contralateral hemisphere.
(§2) Specifically, nine pairs of adult wistar rats (280-320g) were prepared under halothane/O2 anaesthesia. The right side carotid artery was ligated. A guide cannula was placed on the dura 7.5 mm anterior from stereotaxic zero and 1.5 mm from midline on the right. The rats were allowed to recover for 1 hour and were then placed in an incubator with humidity 90+/−5% and temperature 31+/−0.5° C. for 1 hour before hypoxia. Oxygen concentration was reduced and maintained at 6+/−0.202% for 10 minutes. […]
(§3) The size of the striatal region used for the count was measured using an image analyser. […] Data were analysed with paired t-test and presented as mean +/− sem.

GAD [2] = assay: GAD immunopositive striatal neuron count after hypoxic-ischemic injury; settings: adult Wistar rats, 3 ug GPE 2 hours after hypoxia, striatum counted 3 days after injury, vs vehicle; *p<0.05; FIG. 2
Experimental: The objective of these studies was to determine the effects of administering GPE on expression of GAD in the presence or absence of CNS injury. The experiment involved treating the rats with a control vehicle or GPE 2 hours after a focal CNS injury. […] The degree and length of hypoxia, the ambient temperature and humidity were defined to standardise the degree of damage. The neuronal death is restricted to the side of the carotid ligation and is primarily in the hippocampus, dentate gyrus, striatum and lateral cortex of the ligated hemisphere. There is no neuronal loss in the contralateral hemisphere. Specifically, nine pairs of adult wistar rats (280-320 g) were prepared under halothane/O2 anaesthesia. The right side carotid artery was ligated. A guide cannula was placed on the dura 7.5 mm anterior from stereotaxic zero and 1.5 mm from midline on the right. The rats were allowed to recover for 1 hour and were then placed in an incubator with humidity 90+/-5% and temperature 31+/-0.5° C. for 1 hour before hypoxia. Oxygen concentration was reduced and maintained at 6+/-0.202% for 10 minutes. […] The size of the striatal region used for the count was measured using an image analyser. […] Data were analysed with paired t-test and presented as mean +/- sem.

[3] = tested on: neuronal nitric oxide synthetase (NOS); assay: NOS immunopositive striatal neuron count after hypoxic-ischemic injury; settings: adult Wistar rats, 3 ug GPE 2 hours after hypoxia, striatum counted 3 days after injury, vs vehicle; #p=0.072, *p=0.008; FIG. 3
Experimental: as §1, with “NOS” for “ChAT”, “hippocampus,” for “hippocarnpus,”
as §2, with “(280-320 g)” for “(280-320g)”
as §3

GAD [4] = assay: GAD immunoreactivity in striatum after quinolinic acid induced injury; settings: adult male Wistar rats, 3 μg GPE into right lateral ventricle 2 hours after quinolinic acid, 3 days, vs vehicle; no statistics; FIG. 4
Source text: (§4) The objective of this study was to determine the effect of GPE administration on the expression of GAD, NOS and ChAT in the presence or absence of injury to the striatum induced by quinolinic acid. When injected into the striatum in experimental animals quinolinic acid produces lesions arising from the loss of striatopallidal and striatonigral GABAergic projection neurons, but spares the axons in the striatum (Science, 219, 316-318 [1983]). Rats were either treated with a control vehicle or GPE 2 hours after administration of quinolinic acid.
(§5) A total of 14 adult male Wistar rats (280-310 g) were used in this investigation. Eight rats were anaesthetized using halothane/O2 anaesthesia. An injection of quinolinic acid ([…], Sigma, dissolved in 4M NaOH) was stereotaxically placed in the dorsal region of the right striatum 0.8 mm anterior to bregma, 2.5 mm lateral to the midline and 4.0 mm ventral to the pial surface. […]
(§6) The size of the striatal region used for the count was measured using an image analyser (Mocha image analysis software). […] The data has not been analysed for statistical signigicance. Tissue from one of the GPE treated animals was unable to be counted.

NOS = NOS immunoreactivity in striatum after quinolinic acid induced injury; settings: adult male Wistar rats, 3 days, FIG. 5
Source text: as §4, §5, §6

ChAT = ChAT immunoreactivity in striatum after quinolinic acid induced injury; settings: adult male Wistar rats, 3 μg GPE into right lateral ventricle 2 hours after quinolinic acid, 3 days; no statistics; FIG. 6
Source text: as §4, §5, §6

Gly-Pro-Glu [GPE]
number of ChAT immunopositive neurons [1]: increased in both the right and left (uninjured) sides | number of GAD immunopositive neurons (GAD [2]): increased in the right side | number of NOS immunopositive neurons [3]: increased in both the right and left (uninjured) sides | GAD expression (GAD-positive striatal neurons) (GAD [4]): upregulation of GAD expression on both sides of the brain | NOS enzyme levels relative to normal, left (non-injured) side (NOS; 3 μg GPE 2 hours after quinolinic acid, compared with normal controls): restoring the enzyme levels to normal | NOS enzyme expression (NOS-positive striatal neurons) (NOS; 3 μg GPE into right lateral ventricle 2 hours after quinolinic acid, vs vehicle, no statistics): upregulation of enzyme expression on both sides of the brain | levels of ChAT (ChAT-positive striatal neurons) (ChAT): upregulated the levels of ChAT to above normal on the right (injured) side of the brain
